# PMC2951486 (Journal of Alzheimer's disease : JAD, 2010)
# Columns and labels:
# [1] = test system: synthetic Aβ peptide (Aβ1–42) aggregates; assay: Scatchard analysis of [3H]-AST binding to Aβ peptide aggregates; conditions: amyloid aggregates
# AD-PHFs = AD-PHFs (Homo sapiens, UniProt P10636); assay: Inhibition assay, displacement of [3H]-AST from AD-PHFs; conditions: inhibition of [3H]-AST binding; Ki values only in Fig. 2E
# [2] = test system: AD-PHF immobilized on CM5 sensor chip; assay: Surface plasmon resonance on immobilized AD-PHFs; format: binding, human; conditions: SPR, AD-PHFs versus aggregated amyloid
# [3] = Parallel artificial membrane permeability assay; conditions: PAMPA, pH 7.4
# [4] = target: heparin-induced tau filaments (HITF) (Homo sapiens, UniProt P10636); assay: Inhibition assay, displacement of [3H]-AST from HITF; conditions: inhibition of [3H]-AST binding; Ki values only in Fig. 2E
# AD-PHF = AD-PHF (Homo sapiens, UniProt P10636); assay: Double staining immunofluorescence of AD-PHFs with PHF-1 antibody and LNS; conditions: LNS 0.1 %
# Chain of AD-PHF (P10636 623-758 limits assumed): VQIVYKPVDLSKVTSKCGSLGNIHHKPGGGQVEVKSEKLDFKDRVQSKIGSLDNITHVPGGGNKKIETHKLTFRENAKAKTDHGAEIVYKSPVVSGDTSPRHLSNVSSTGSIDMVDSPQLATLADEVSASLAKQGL
# Chain of AD-PHFs (P10636 623-758 limits assumed): as above
# Chain of heparin-induced tau filaments (HITF) (P10636 1-441 isoform P10636-8): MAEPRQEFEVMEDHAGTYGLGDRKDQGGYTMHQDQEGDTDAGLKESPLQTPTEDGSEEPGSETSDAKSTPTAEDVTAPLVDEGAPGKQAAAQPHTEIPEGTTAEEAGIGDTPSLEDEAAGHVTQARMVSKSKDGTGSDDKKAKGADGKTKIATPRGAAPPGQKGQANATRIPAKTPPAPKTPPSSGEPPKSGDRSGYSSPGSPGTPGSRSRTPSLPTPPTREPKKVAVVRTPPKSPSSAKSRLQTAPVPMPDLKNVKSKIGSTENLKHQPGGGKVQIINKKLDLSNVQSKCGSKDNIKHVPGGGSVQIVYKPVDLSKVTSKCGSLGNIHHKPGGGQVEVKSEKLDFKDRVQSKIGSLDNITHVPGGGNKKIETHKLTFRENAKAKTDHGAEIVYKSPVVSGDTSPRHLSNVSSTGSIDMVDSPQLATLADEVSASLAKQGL
Compound,ratio Bmax/Kd [1],affinity for AD-PHFs (relative Ki within the series) (AD-PHFs),response curves (RU) on AD-PHFs surface compared to amyloid surface [2],Papp at 16 h [3],affinity for HITF (relative Ki within the series) [4],staining of AD-PHF compared with PHF-1 immunostaining (AD-PHF)
"COc1ccc(CCN2CCC(Nc3nc4ccccc4n3Cc3ccc(F)cc3)CC2)cc1 [AST, astemizole]",0.06,highest affinity for AD-PHFs,at least five times higher,145 ×10⁻⁶ cm/s,,
"Cc1c(OCC(F)(F)F)ccnc1C[S+]([O-])c1nc2ccccc2[nH]1 (stereo not shown) [LNS, lansoprazole]",,,at least five times higher,,highest affinity for HITF,colocalization of the signals from LNS and PHF-1 mAb
